Test: in vitro
Settings: human, hela cells, % viability

Point of comparison: `O=Cc1ccc(-c2nccnc2NS(=O)(=O)c2ccccc2)cc1` [CBK073845], viability at 28.5 h, 10 µM 97.3%. Against it:
- CCc1ccc(CNC(=O)c2ccc3c(c2)NC(=O)C(N2CCOCC2)S3)cc1 (stereo not shown) [CBK071737] — lower, 93.2%
- CCCCNC(=O)c1ccc2c(c1)NC(=O)C(N1CCCC1)S2 (stereo not shown) [CBK071762] — higher, 98.4%
- COC(=O)Cn1cnc2sc(C(=O)Nc3ccccc3OC)c(C)c2c1=O [CBK071808] — higher, 109%
- CCCn1cnc2sc(C(=O)Nc3ccc(C)cc3C)c(C)c2c1=O [CBK071815] — lower, 84.6%
- COCCNC(=O)c1sc2ncn(CC(=O)Nc3ccccc3OC)c(=O)c2c1C [CBK071846] — lower, 88.7%
- CCOCCn1cnc2sc(C(=O)Nc3cccc(Cl)c3)c(C)c2c1=O [CBK071854] — lower, 91.8%
- Cc1cc2c(=O)n(CC(=O)NCc3ccco3)cnc2s1 [CBK071898] — lower, 91.2%
- COCCCNC(=O)Cn1cnc2sc(C)cc2c1=O [CBK071899] — higher, 102%
- CCOc1ccc(C(=O)Nc2nc(-c3ccc(F)cc3)cs2)cc1 [CBK072020] — lower, 91%
- O=C(Nc1nc2ccccc2s1)c1cc([N+](=O)[O-])ccc1Cl [CBK072428] — lower, 85.9%
- O=C(c1cccnc1)N1CCN(C(=O)c2ccco2)CC1 [CBK072684] — lower, 94.3%
- Fc1cccc(Nc2nc(-c3ccncc3)nc3ccccc23)c1 [CBK072732] — lower, 89.5%
- CCOc1ccc(Nc2ncnc3c2cnn3Cc2ccccc2)cc1 [CBK072752] — higher, 97.8%
- Cc1cccc(Nc2ncnc3ccccc23)c1 [CBK072827] — higher, 114%
- Cc1cc(C)c(OCC(=O)Nc2cc(-c3nc4ncccc4o3)ccc2C)c(Cl)c1 [CBK072887] — lower, 92.7%
- Cc1cc(NC(=O)c2ccc3c(c2)C(=O)N(CC2CCCO2)C3=O)no1 (stereo not shown) [CBK072998] — lower, 90.2%
- Cc1cccc(C(=O)Nc2ccc3oc(-c4cccnc4)nc3c2)c1 [CBK073161] — lower, 82.7%
- CCCc1c(O)nc(SCC(=O)NCc2ccco2)[nH]c1=O [CBK073278] — lower, 95.2%
- CCCCc1c(O)nc(SCC(=O)NCC2CCCO2)[nH]c1=O (stereo not shown) [CBK073281] — higher, 97.6%
- C=CCNC(=O)CSc1nc(O)cc(=O)[nH]1 [CBK073298] — higher, 104%
- C=CCc1c(O)nc(SCC(=O)N2CCOCC2)[nH]c1=O [CBK073301] — lower, 91.8%
- O=C(O)CC(NS(=O)(=O)c1cccc2nsnc12)C(=O)O (stereo not shown) [CBK073316] — higher, 112%
- C=CCOC(=O)C1=C(C)N=C2SCCC(=O)N2C1c1ccc(SC)cc1 (stereo not shown) [CBK073405] — lower, 93.5%
- COc1ccc(C)cc1S(=O)(=O)Nc1cc(N2CCN(C(C)C)CC2)c2occc2c1 [CBK073625C] — lower, 92%
- CC(C)C(=O)Nc1cc2cccnc2nc1-c1ccc(N(C)C)cc1 [CBK073650] — lower, 90.6%
- CC(C)C(=O)Nc1cc2cccnc2nc1-c1cccc(C(F)(F)F)c1 [CBK073657] — lower, 93.7%
- COc1ccc(C(C)C)cc1-c1nc2ncccc2cc1NC(=O)C(C)C [CBK073659] — lower, 87.8%
- COc1cc(F)ccc1-c1ccc2ccc(NC(=O)C(C)C)nc2n1 [CBK073666] — lower, 87.1%
- CCCCc1ccc(-c2ccc3ccc(NC(=O)C(C)C)nc3n2)cc1 [CBK073668] — lower, 93%
- CC(C)C(=O)Nc1ccc2ccc(-c3ccc(C(C)(C)C)cc3)nc2n1 [CBK073669] — higher, 106%
- CC(C)C(=O)Nc1ccc2c(-c3ccccc3)ccnc2n1 [CBK073671] — higher, 101%
- CC(C)C(=O)Nc1ccc2c(-c3ccc4c(c3)CCO4)ccnc2n1 [CBK073672] — lower, 87.7%
- CC(C)C(=O)Nc1ccc2c(-c3ccc4c(c3)OCCCO4)ccnc2n1 [CBK073675] — lower, 96.7%
- Oc1cc2cccnc2nc1-c1ccc2c(c1)CCO2 [CBK073698] — lower, 76%
- COc1ccc(-c2nc3ncccc3cc2O)cc1C [CBK073700] — lower, 70.1%
- CCCCc1ccc(-c2nc3ncccc3cc2O)cc1 [CBK073702] — lower, 91.3%
- Oc1cc2cccnc2nc1-c1ccc(OCc2ccccc2)c(F)c1 [CBK073708] — lower, 91.2%
- O=c1ccc2ccc(-c3ccsc3)nc2[nH]1 [CBK073710] — lower, 97%
- CC(C)(C)c1ccc(-c2ccc3ccc(=O)[nH]c3n2)cc1 [CBK073716] — lower, 96.5%
- CS(=O)(=O)c1ccc(-c2ccc3ccc(=O)[nH]c3n2)cc1 [CBK073719] — lower, 86.7%
- COc1cc(-c2ccc3ccc(=O)[nH]c3n2)cc(OC)c1OC [CBK073721] — higher, 98.8%
- O=c1ccc2ccc(-c3cccc(OCc4ccccc4)c3)nc2[nH]1 [CBK073722] — lower, 95.9%
- COc1ccc(-c2ccnc3[nH]c(=O)ccc23)cc1C [CBK073726] — higher, 110%
- O=c1ccc2c(-c3cccc(C(F)(F)F)c3)ccnc2[nH]1 [CBK073733] — lower, 90.5%
- COc1ccc(C(C)C)cc1-c1ccnc2[nH]c(=O)ccc12 [CBK073735] — higher, 102%
- COc1ccc([C@@]23CC[C@@H](NC(=O)Nc4ccc5c(c4)OC(F)(F)O5)C[C@@H]2N(C)CC3)cc1OC [CBK073743T] — lower, 88.8%
- CCNc1cc2ccccc2c(-c2cc(C(C)C)ccc2OC)n1 [CBK073777] — higher, 110%
- COc1ccc(C(C)C)cc1-c1nc(NS(C)(=O)=O)cc2ccccc12 [CBK073779] — lower, 94.2%
- CC(C)C(=O)Nc1cc2ccccc2c(-c2ccc(OCc3ccccc3)c(F)c2)n1 [CBK073783] — lower, 89.8%
- CS(=O)(=O)Nc1cc2ccccc2c(-c2ccc(OCc3ccccc3)c(F)c2)n1 [CBK073785] — lower, 92.7%
- CC(C)C(=O)Nc1cc2ccccc2c(-c2cccnc2)n1 [CBK073786] — higher, 101%
- CN1C(=O)C(CCNc2ccccc2)S/C1=N/C1CC2C=CC1C2 (stereo not shown) [CBK073812] — higher, 114%
- c1ccc(C(CC2CCCCC2)NCc2cccnc2)cc1 (stereo not shown) [CBK073816] — lower, 96.3%
- COc1ccc(C)cc1S(=O)(=O)Nc1cc(N2CCNC(C(F)(F)F)C2)c2occc2c1 (stereo not shown) [CBK073818C] — higher, 104%
- COc1cc([C@@]23CC[C@@H](NC(=O)Nc4cc(F)ccc4F)C[C@@H]2N(C)CC3)ccc1OC(F)F [CBK073834] — higher, 106%
- Cc1ccc(S(=O)(=O)Nc2nccnc2-c2ccc(Cc3nnn[nH]3)cc2)cc1 [CBK073841] — lower, 96.9%
- O=C(O)CCC(=O)NCc1ccc(-c2nccnc2NS(=O)(=O)c2ccc(O)cc2)cc1 [CBK073843] — higher, 106%
- CCC(CC)C(=O)N1c2ccccc2C(C)(c2ccccc2)CC1(C)C (stereo not shown) [CBK073862] — lower, 91.5%
- Cc1noc(C)c1S(=O)(=O)Nc1ccc2cc(Br)cnc2n1 [CBK073893] — lower, 93.1%
- O=S(=O)(Nc1ccc2cc(Br)cnc2n1)c1cccc2nsnc12 [CBK073894] — lower, 82.8%
- O=C(O)c1cc(S(=O)(=O)Nc2ccc3cc(Br)cnc3n2)c(F)cc1Cl [CBK073898] — lower, 92.2%
- CCNC(=O)c1cn(Cc2ccccc2)nn1 [CBK073904] — higher, 97.9%
- COc1ccc([C@@]23CC[C@@H](NC(=O)c4ccc(C(F)(F)F)cc4F)C[C@@H]2N(C)CC3)cc1OC [CBK073976T] — higher, 108%
- COc1ccc([C@@]23CC[C@@H](NC(=O)Nc4cc(F)c(C#N)cc4F)C[C@@H]2N(C)CC3)cc1OC [CBK073979T] — higher, 98.2%
- COc1ccc([C@@]23CC[C@@H](NC(=O)c4cccc(Cl)c4)C[C@@H]2N(C)CC3)cc1OC [CBK073982T] — lower, 93.5%
- O=S(=O)(Nc1cc(OC2CCCNC2)c2occc2c1)c1cc(F)ccc1F (stereo not shown) [CBK073996C] — higher, 105%
- CC(C)[C@H]1SC(NC[C@H](C)c2ccccc2)=NC1=O [CBK074034] — lower, 93.6%
- FC(F)(F)Oc1ccccc1-c1nnc(NC2CCCCCC2)s1 [CBK074041] — lower, 93.8%
- CS(=O)(=O)Nc1nccnc1N1CCNCC1 [CBK074045T] — higher, 105%
- Cc1cccc(C(=O)N2CCCC(C)C2)c1 (stereo not shown) [CBK074057] — lower, 95.4%
- COc1ccccc1CCCN1CCC2(C1)c1[nH]c3ccccc3c1CCN2S(C)(=O)=O (stereo not shown) [CBK074095] — higher, 113%
- COc1ccc(C(c2ccccc2C)N(C)C(=O)C2CCNCC2)cn1 (stereo not shown) [CBK074124] — higher, 100%
- COc1cc(C)ccc1S(=O)(=O)Nc1cc(OC2CCNCC2)c2occc2c1 [CBK074192C] — higher, 98.6%
- CCC1CCCCN1C(=O)c1cc2ccccc2s1 (stereo not shown) [CBK074211] — lower, 85.3%
- COc1ccc([C@@]23CC[C@@H](NC(=O)c4ccc(-c5csnn5)cc4)C[C@@H]2N(C)CC3)cc1OC [CBK074256T] — higher, 100%
- COc1ccc([C@@]23CC[C@@H](NC(=O)c4cc(F)c(Cl)cc4Cl)C[C@@H]2N(C)CC3)cc1OC [CBK074264T] — higher, 97.4%
- CS(=O)(=O)Nc1nccnc1OC1CCNCC1 [CBK074265T] — lower, 90.6%
- CC1(CC(=O)N2CCCCCC2)SC(NC2CCCCCC2)=NC1=O (stereo not shown) [CBK074269] — lower, 96%
- COc1ccc(CNC(C)C2COc3ccccc3O2)c(OC)c1 (stereo not shown) [CBK074283G] — lower, 88.8%
- CCOC(=O)CCNC(C)C1COc2ccccc2O1 (stereo not shown) [CBK074284G] — higher, 101%
- CCOC(=O)c1sc(-c2ccccc2)nc1O [CBK074298] — lower, 96.9%
- COc1ccc([C@@]23CCN(C(=O)c4ccc(Cl)c(Cl)c4)C[C@@H]2CN(C)C3)cc1OC [CBK074308T] — higher, 99.4%
- CC(=O)Nc1ccc(N2CCN(CCO)CC2)cc1OCCCOc1ccccc1 [CBK074317T] — higher, 110%
- CCC1CCCCN1C(=O)c1cc2cc(Cl)ccc2[nH]1 (stereo not shown) [CBK074329] — higher, 102%
- COc1ccc(C(=O)N2CCC(Cc3ccccc3)CC2)cc1 [CBK074337] — lower, 95.8%
- COc1ccc(C(=O)N2CCC(C)CC2)cc1[N+](=O)[O-] [CBK074341] — lower, 93.3%
- O=C1CC(NCc2ccc3c(c2)OCO3)C(=O)N1c1ccc(OC(F)(F)Cl)cc1 (stereo not shown) [CBK074357] — lower, 87.7%

— publication PMC12040169 (PLOS Biology, 2025)
